Experiment: Inhibition of 20S proteasome (unknown origin) using Suc-LLVY-AMC as substrate preincubated for 1 hr followed by substrate addition incubated for 1 hr by fluorescence analysis
Design: species or system Homo sapiens

Structure (SMILES) | IC50
CC(C)C[C@@H](CS(=O)(=O)F)NC(=O)[C@H](CC(C)C)NC(=O)[C@H](CC(C)C)NC(=O)OCc1ccccc1 | 89.1 nM
CC(C)C[C@@H](/C=C/S(=O)(=O)F)NC(=O)[C@H](CC(C)C)NC(=O)[C@H](CC(C)C)NC(=O)OCc1ccccc1 | 218 nM
CC(C)C[C@@H](CS(=O)(=O)F)NC(=O)[C@H](CC(C)C)NC(=O)[C@H](CC(C)C)NC(=O)[C@H](CC(C)C)NC(=O)OCc1ccccc1 | 17.8 nM
CC(C)C[C@@H](/C=C/S(=O)(=O)F)NC(=O)[C@H](CC(C)C)NC(=O)[C@H](CC(C)C)NC(=O)[C@H](CC(C)C)NC(=O)OCc1ccccc1 | 99 nM

From ChEMBL document CHEMBL3813610, “Proteasome inhibition by new dual warhead containing peptido vinyl sulfonyl fluorides” (Bioorg Med Chem, 2016)
